The subject of the assay is BDF1 mice, Friend leukemia sc, tumor weight T/C. Kind of assay: NCI In Vivo Anticancer Drug Screen. Data for tumor model Friend Virus Leukemia (Solid) (subcutaneous) in B6D2F1 (BDF1) mice. Particulars: endpoint: mean tumor weight, higher = larger tumour. Here is the method:
The antitumor activity of compounds was measured in mice bearing transplantable tumors. Survival or tumor size were measured and the results are expressed as the measurement made in the treated group (T) divided by the measurement made in the vehicle treated control group (C). The tumor model used in this assay is Friend Virus Leukemia (Solid) (subcutaneous) in B6D2F1 (BDF1) mice

Where [1] appears, read: dose: 100.0 mg/kg/injection, schedule: Q01DX011 (ip), vehicle: carboxymethylcellulose (CMC).
[2] abbreviates: dose: 50.0 mg/kg/injection, schedule: Q01DX011 (ip), vehicle: carboxymethylcellulose (CMC).
[3] abbreviates: dose: 1.0 mg/kg/injection, schedule: Q01DX011 (ip), vehicle: carboxymethylcellulose (CMC).
Where [4] appears, read: dose: 2.0 mg/kg/injection, schedule: Q01DX011 (ip), vehicle: carboxymethylcellulose (CMC).
[5] abbreviates: dose: 200.0 mg/kg/injection, schedule: Q01DX011 (ip), vehicle: carboxymethylcellulose (CMC).
Setting [6] is: dose: 125.0 mg/kg/injection, schedule: Q01DX011 (ip), vehicle: carboxymethylcellulose (CMC).
[7] abbreviates: dose: 60.0 mg/kg/injection, schedule: Q01DX011 (ip), vehicle: carboxymethylcellulose (CMC).

Several values for one entry are separate records, joined by “and”; a condition that tells them apart may be missing. Identical values can stand only once. Records with an inconclusive call do not appear.

Consider `O=c1cnn(C2OC(CO)C(O)C2O)c(=O)[nH]1` (stereo not given), for which the T/C by setting is: (dose: 62.5 mg/kg/injection, schedule: Q01DX011 (ip), vehicle: saline) 160 % of control; (dose: 125.0 mg/kg/injection, schedule: Q01DX011 (ip), vehicle: saline) 170 % of control; (dose: 500.0 mg/kg/injection, schedule: Q01DX011 (ip), vehicle: saline) 105 % of control.
For the compound `CC(CCc1cccc2ccccc12)(C(=O)O)C(=O)O`, under setting [1], the T/C is 92 % of control.
For the compound `CC(=O)Nc1ccc2nc3ccc(NC(C)=O)cc3[n+](-c3ccccc3)c2c1`, the T/C was 101 % of control (dose: 25.0 mg/kg/injection, schedule: Q01DX011 (ip), vehicle: carboxymethylcellulose (CMC)); 112 % of control under setting [2]; 92 % of control under setting [1].
Turning to `CN(C)c1ccc(C(N)=O)cn1`, the T/C under setting [3] was 78 % of control; the T/C under setting [4] was 88 % of control and 100 % of control.
Regarding `NC(Cc1c[nH]c2ccc(N(CCCl)CCCl)cc12)C(=O)O` (stereo not given), the T/C reads like this: (dose: 0.75 mg/kg/injection, schedule: Q01DX011 (ip), vehicle: saline) 37 % of control; under setting [3], 120 % of control; (dose: 1.5 mg/kg/injection, schedule: Q01DX011 (ip), vehicle: saline) 47 % of control; (dose: 2.5 micrograms/kg/injection, schedule: Q01DX011 (ip), vehicle: carboxymethylcellulose (CMC)) 71 % of control; (dose: 5.0 micrograms/kg/injection, schedule: Q01DX011 (ip), vehicle: carboxymethylcellulose (CMC)) 61 % of control; (dose: 11.0 micrograms/kg/injection, schedule: Q01DX011 (ip), vehicle: carboxymethylcellulose (CMC)) 86 % of control. Further, the T/C reads like this: (dose: 22.0 micrograms/kg/injection, schedule: Q01DX011 (ip), vehicle: carboxymethylcellulose (CMC)) 90 % of control; (dose: 45.0 micrograms/kg/injection, schedule: Q01DX011 (ip), vehicle: carboxymethylcellulose (CMC)) 52 % of control; (dose: 90.0 micrograms/kg/injection, schedule: Q01DX011 (ip), vehicle: carboxymethylcellulose (CMC)) 34 % of control; (dose: 180.0 micrograms/kg/injection, schedule: Q01DX011 (ip), vehicle: carboxymethylcellulose (CMC)) 40 % of control; (dose: 370.0 micrograms/kg/injection, schedule: Q01DX011 (ip), vehicle: carboxymethylcellulose (CMC)) 39 % of control.
Take `COc1ccccc1NC(=O)CSC(N)=O`: the T/C was 91 % of control under setting [1]; 104 % of control under setting [5]; 71 % of control (dose: 400.0 mg/kg/injection, schedule: Q01DX011 (ip), vehicle: carboxymethylcellulose (CMC)).
As for `CCCCCCCCCCCCn1c(C)nc2ccccc21`, the T/C under setting [3] is 114 % of control; the T/C under setting [4] was 75 % of control; the T/C (dose: 4.0 mg/kg/injection, schedule: Q01DX011 (ip), vehicle: carboxymethylcellulose (CMC)) was 97 % of control; the T/C (dose: 8.0 mg/kg/injection, schedule: Q01DX011 (ip), vehicle: carboxymethylcellulose (CMC)) is 76 % of control.
On to `Nc1nc(N)c(N=Nc2ccccc2)c(=O)[nH]1`, for which the T/C runs as follows: under setting [2], 74 % of control; under setting [1], 70 % of control; under setting [5], 60 % of control.
Regarding `Nc1ccc(OC(=O)Oc2ccc(N)cc2)cc1`, the T/C was 105 % of control (dose: 31.0 mg/kg/injection, schedule: Q01DX011 (ip), vehicle: carboxymethylcellulose (CMC)); 68 % of control (dose: 62.0 mg/kg/injection, schedule: Q01DX011 (ip), vehicle: carboxymethylcellulose (CMC)); 28 % of control under setting [6].
Turning to `S=C(N=Nc1ccccc1)NNc1ccccc1`, the T/C (dose: 37.5 mg/kg/injection, schedule: Q01DX011 (ip), vehicle: carboxymethylcellulose (CMC)) is 92 % of control.
On to `CCC1=C(c2cc(Cl)c3ccccc3c2OCC(=O)O)OC(CC)(C(=O)c2cc(Cl)c3ccccc3c2OCC(=O)O)CC1` (stereo not given), for which the T/C (dose: 30.0 mg/kg/injection, schedule: Q01DX011 (ip), vehicle: carboxymethylcellulose (CMC)) is 52 % of control; the T/C under setting [7] was 55 % of control; the T/C (dose: 120.0 mg/kg/injection, schedule: Q01DX011 (ip), vehicle: carboxymethylcellulose (CMC)) is 63 % of control; the T/C (dose: 240.0 mg/kg/injection, schedule: Q01DX011 (ip), vehicle: carboxymethylcellulose (CMC)) was 66 % of control.
In the case of `C=C(C)C(=O)OCC1CO1` (stereo not given), the T/C is 99 % of control (dose: 50.0 mg/kg/injection, schedule: Q01DX011 (ip), vehicle: water) and 110 % of control (dose: 100.0 mg/kg/injection, schedule: Q01DX011 (ip), vehicle: water).
Take `CC(=O)OCC(=O)[C@@]1(O)CC[C@H]2[C@@H]3CCC4=CC(=O)CC[C@]4(C)[C@H]3[C@@H](O)C[C@@]21C`: the T/C runs as follows: (dose: 2.25 mg/kg/injection, schedule: Q01DX011 (sc), vehicle: steriod suspending solution) 267 % of control; (dose: 8.5 mg/kg/injection, schedule: Q01DX011 (sc), vehicle: steriod suspending solution) 73 % of control; (dose: 9.0 mg/kg/injection, schedule: Q01DX011 (sc), vehicle: steriod suspending solution) 88 % of control; (dose: 17.0 mg/kg/injection, schedule: Q01DX011 (sc), vehicle: steriod suspending solution) 105 % of control; (dose: 30.0 mg/kg/injection, schedule: Q01DX011 (sc), vehicle: steriod suspending solution) 44 % of control; (dose: 60.0 mg/kg/injection, schedule: Q01DX011 (sc), vehicle: steriod suspending solution) 32 % of control. In addition, the T/C runs as follows: (dose: 68.0 mg/kg/injection, schedule: Q01DX011 (sc), vehicle: steriod suspending solution) 60 % of control; (dose: 90.0 mg/kg/injection, schedule: Q01DX011 (sc), vehicle: steriod suspending solution) 29 % of control.
Take `O=C(Nc1ccc(C2=NCCN2)cc1)c1ccc(C(=O)Nc2ccc(C3=NCCN3)cc2)c(NC(=O)c2ccc(C(=O)Nc3cc(C(=O)Nc4ccc(C5=NCCN5)cc4)ccc3C(=O)Nc3ccc(C4=NCCN4)cc3)cc2)c1`: the T/C is 161 % of control under setting [6] and 115 % of control (dose: 500.0 mg/kg/injection, schedule: Q01DX011 (ip), vehicle: carboxymethylcellulose (CMC)).
With `C[C@]12CC[C@H](OC3OC(CO)C(O)C(O)C3O)C[C@H]1CC[C@@H]1[C@@H]2CC[C@]2(C)[C@@H](C3=CCOC3=O)CC[C@]12O` (stereo not given in full), the T/C (dose: 0.1 mg/kg/injection, schedule: Q01DX011 (ip), vehicle: carboxymethylcellulose (CMC)) is 69 % of control.
Regarding `O=c1[nH]cc(F)c(=O)[nH]1`, the T/C by setting is: (dose: 3.0 mg/kg/injection, schedule: Q01DX011 (ip), vehicle: carboxymethylcellulose (CMC)) 84 % of control; (dose: 3.3 mg/kg/injection, schedule: Q01DX011 (ip), vehicle: carboxymethylcellulose (CMC)) 101 % of control; (dose: 6.0 mg/kg/injection, schedule: Q01DX011 (ip), vehicle: carboxymethylcellulose (CMC)) 66 % of control and 44 % of control; (dose: 6.7 mg/kg/injection, schedule: Q01DX011 (ip), vehicle: carboxymethylcellulose (CMC)) 83 % of control; (dose: 13.5 mg/kg/injection, schedule: Q01DX011 (ip), vehicle: carboxymethylcellulose (CMC)) 69 % of control and 71 % of control; (dose: 18.0 mg/kg/injection, schedule: Q01DX011 (ip), vehicle: carboxymethylcellulose (CMC)) 93 % of control. The T/C (dose: 27.0 mg/kg/injection, schedule: Q01DX011 (ip), vehicle: carboxymethylcellulose (CMC)) was 22 % of control and 28 % of control.
With `O=NN1CCN(N=O)CC1`, the T/C is 94 % of control (dose: 8.3 mg/kg/injection, schedule: Q01DX011 (ip), vehicle: carboxymethylcellulose (CMC)); 120 % of control (dose: 16.7 mg/kg/injection, schedule: Q01DX011 (ip), vehicle: carboxymethylcellulose (CMC)); 95 % of control (dose: 23.5 mg/kg/injection, schedule: Q01DX011 (ip), vehicle: carboxymethylcellulose (CMC)); 85 % of control (dose: 26.0 mg/kg/injection, schedule: Q01DX011 (ip), vehicle: carboxymethylcellulose (CMC)).
In the case of `CC(/C=N/N=C(N)N)=N/N=C(N)N`, the T/C (dose: 50.0 mg/kg/injection, schedule: Q01DX011 (ip), vehicle: saline) was 124 % of control.
Turning to `NNC(=O)c1nsnc1NC(N)=O`, the T/C runs as follows: (dose: 43.0 mg/kg/injection, schedule: Q01DX011 (ip), vehicle: carboxymethylcellulose (CMC)) 53 % of control; under setting [7], 46 % of control.
For `O=C(Nc1ccc(C2=NCCN2)cc1)c1ccc(C(=O)Nc2ccc(C3=NCCN3)cc2)cc1`, the T/C is, setting by setting: (dose: 31.25 mg/kg/injection, schedule: Q01DX011 (ip), vehicle: carboxymethylcellulose (CMC)) 94 % of control; (dose: 62.5 mg/kg/injection, schedule: Q01DX011 (ip), vehicle: carboxymethylcellulose (CMC)) 89 % of control; under setting [1], 99 % of control; under setting [6], 5 % of control; (dose: 187.0 mg/kg/injection, schedule: Q01DX011 (ip), vehicle: carboxymethylcellulose (CMC)) 32 % of control.

These data come from PubChem BioAssay AID228 (DTP/NCI, 2004).
